Measurements as given in patent US11951098B2, “Therapeutic agent for meibomian dysfunction” (SANTEN PHARMACEUTICAL CO., LTD., priority 2013, dated 2024).

What was measured:
[1] = test system: HR-AD feed fed Hos: HR-1 series hairless mouse; test: Test using HR-AD feed fed hairless mouse; assay type: in vivo, Hos: HR-1 series hairless mice; conditions: for Number of obstructive orifices: among eight orifices at centre of upper eyelid
Experimental: It has been known that a HR-AD feed is fed to Hos: HR-1 series hairless mouse, obstruction of the meibomian gland orifices similar to the signs/findings of MGD could be recognized (Japanese Patent Application No. 2012-137778). Thus, effects of sirolimus and deforolimus which are representative examples of the present compounds on the obstruction were investigated.
0.1% (w/v) sirolimus suspension: it was prepared by suspending in 0.01% (w/v) hydroxypropylmethyl cellulose.
0.1% (w/v) deforolimus suspension: it was prepared by suspending in 0.01% (w/v) hydroxypropylmethyl cellulose. Incidentally, deforolimus used in the present test was prepared according to the method described in JP 2005-516065A.
Six-weeks old male Hos: HR-1 series hairless mice were grouped into 5 mice of a normal feed fed group (CRF-1 feed, available from Oriental Yeast Co., Ltd.) and 15 mice of a HR-AD feed fed group (available from Nosan Corporation), and fed the normal feed or the HR-AD feed, respectively, which were spontaneously taken. After 28th day from initiation of the feeding, the meibomian gland orifices were observed by using a slit lamp, and a number of obstructive orifices among the eight meibomian gland orifices at the center of the upper eyelid was measured. Incidentally, the presence or absence of obstruction of the meibomian gland orifices was judged by the state whether the meibomian gland orifices were in a turbid and raised or not (see JP 2014-023526A).
Fifteen mice of the HR-AD feed fed group were grouped into a physiological saline solution-administered group, a 0.1% sirolimus suspension-administered group and a 0.1% deforolimus suspension-administered group (5 mice in each group), and from 29th day from initiation of the feeding, the physiological saline solution (2 μL/eye, twice a day), the 0.1% sirolimus suspension (2 μL/eye, twice a day) or the 0.1% (w/v) deforolimus suspension (2 μL/eye, twice a day) were dropped to the eye for 28 days. At 42nd day and 56th day after initiation of the feeding, a number of obstructions of the meibomian gland orifices was measured by using a slit lamp.

[2] = test system: complete Freund's adjuvant administered rabbit; test: Test using complete Freund's adjuvant administered rabbit; assay type: in vivo, Japanese white rabbits; conditions: average; for Score of telangiectasia: right upper eyelid, sum of three fractions
Experimental: In a complete Freund's adjuvant administered rabbit, telangiectasia around the meibomian gland orifices, and obstruction at the meibomian gland orifices, which are similar to the signs/findings of MGD can be recognized. Effects of sirolimus which was a representative example of the present compound on the telangiectasia and obstruction were investigated (see JP 2014-024835A).
0.1% (w/v) sirolimus suspension: it was prepared by suspending in 0.01% (w/v) hydroxypropylmethyl cellulose. Incidentally, with regard to sirolimus, that purchased from LKT Laboratories, Inc., (Catalog number: R0161) was used (which is the same in the following Examples).
10 μL of the complete Freund's adjuvant was administered to the right upper eyelid (3 portions) of about 2 kg of male Japanese white rabbits, respectively. After 4 days from provocation, around the meibomian gland orifices of the right upper eyelid was observed by using slit lamp, a score of telangiectasia and a score of obstruction at the meibomian gland orifices were judged.
Incidentally, with regard to the score of telangiectasia, in accordance with the criteria in the following Tables 1 and 2, the eyelid margin of the upper eyelid was equally divided to three fractions of the ear side, the center portion and the nose side, the score of telangiectasia around the meibomian gland orifices was judged with regard to the respective fractions, and the sum of the scores of the three fractions was calculated as a score per one eye. Here, the presence or absence of dilation of the capillaries was judged by the state whether the capillaries which cannot be usually recognized with naked eyes can be recognized or not as a result of dilation of the diameter of the blood vessel. Also, the presence or absence of obstruction of the meibomian gland orifices was judged by the state whether the meibomian gland orifices are in a turbid or not.
The rabbits were grouped into a physiological saline solution-administered group and a 0.1% sirolimus suspension-administered group, and tested with 7 or 8 eyes in each group so that fluctuation of the average value of the respective scores became small. After 5th day from provocation, a physiological saline solution (50 μL/eye, twice a day) or a 0.1% sirolimus suspension (50 μL/eye, twice a day) was dropped into the right eye for 10 days. After 11th and 15th days from provocation, around the meibomian gland orifices of the right upper eyelid was observed by using a slit lamp, whereby the score of telangiectasia was judged and the number of the obstructive orifices was measured.

[3] = 42nd day after initiation of the feeding, 0.1% (w/v) suspension 2 μL/eye twice a day from 29th day
[4] = 56th day after initiation of the feeding, 0.1% (w/v) suspension 2 μL/eye twice a day for 28 days
[5] = 11th day after provocation, 0.1% (w/v) suspension 50 μL/eye twice a day from 5th day
[6] = 15th day after provocation, 0.1% (w/v) suspension 50 μL/eye twice a day for 10 days

| Structure (SMILES) | Number of obstructive orifices [1, 3] | Number of obstructive orifices [1, 4] | Score of obstruction of orifices [2, 5] | Score of telangiectasia [2, 5] | Score of obstruction of orifices [2, 6] | Score of telangiectasia [2, 6] | Effect on number of the obstructions of the meibomian gland orifices (in words) ([1]; 0.1% suspension instilled, versus physiological saline group) |
| --- | --- | --- | --- | --- | --- | --- | --- |
| CO[C@H]1C[C@@H]2CC[C@@H](C)[C@@](O)(O2)C(=O)C(=O)N2CCCC[C@H]2C(=O)O[C@H]([C@H](C)C[C@@H]2CC[C@@H](O)[C@H](OC)C2)CC(=O)[C@H](C)/C=C(\C)[C@@H](O)[C@@H](OC)C(=O)[C@H](C)C[C@H](C)/C=C/C=C/C=C/1C [0.1% Sirolimus suspension, sirolimus] | 0.7 | 0.0 | 2.3 | 2.1 | 1.3 | 2.1 |  |
| CO[C@H]1C[C@@H]2CC[C@@H](C)[C@@](O)(O2)C(=O)C(=O)N2CCCC[C@H]2C(=O)O[C@H]([C@H](C)C[C@@H]2CC[C@@H](OP(C)(C)=O)[C@H](OC)C2)CC(=O)[C@H](C)/C=C(\C)[C@@H](O)[C@@H](OC)C(=O)[C@H](C)C[C@H](C)/C=C/C=C/C=C/1C [0.1% Deforolimus suspension, deforolimus] | 2.7 | 2.2 |  |  |  |  | decreased |
